Measured values taken from patent US10196403B2, “Compounds and compositions and uses thereof” (Sunovion Pharmaceuticals Inc., priority 2016, dated 2019).

Test system: mice
Assay: Neuropharmacological Assay (SmartCube)
Assay type: in vivo
Details: for minimal effective dose: Mus musculus, MED = dose having 50% or more total activity in SmartCube, read-out: POTENCY (minimal effective dose, MED); for AD: ADHD (SmartCube probability) / AG: analgesic (SmartCube probability) / AX: anxiolytic (SmartCube probability) / CE: cognitive enhancer (SmartCube probability) / DP: anti-depressant (SmartCube probability) / MS: mood stabilizer (SmartCube probability) / PS: anti-psychotic (SmartCube probability) / SD: sedative hypnotic (SmartCube probability) / UN: uncharacterized CNS activity (SmartCube probability): mice, i.p. 15 min before test, most efficacious dose(s) of 3 doses
Method in brief: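 Compounds in NMP/PEG/propylene glycol given i.p. 15 min before automated video-based behavioral testing, at 3 doses; behavioral signature compared with a reference-compound database to give probability per drug class, reported at most efficacious dose. MED = dose (mpk) giving ≥50% total activity; doses typically 0.3–30 mpk.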

| Structure (SMILES) | minimal effective dose | AD: ADHD (SmartCube probability) | AG: analgesic (SmartCube probability) | AX: anxiolytic (SmartCube probability) | CE: cognitive enhancer (SmartCube probability) | DP: anti-depressant (SmartCube probability) | MS: mood stabilizer (SmartCube probability) | PS: anti-psychotic (SmartCube probability) | SD: sedative hypnotic (SmartCube probability) | UN: uncharacterized CNS activity (SmartCube probability) |
| --- | --- | --- | --- | --- | --- | --- | --- | --- | --- | --- |
| CNC[C@@H]1OC[C@H](O)c2cccc(F)c21 [Example 99, (1R,4R)-8-fluoro-1-((methylamino)methyl)isochroman-4-ol] | 10 to 30 mg/kg | + (LOQ≤ + <5%) | + (LOQ≤ + <5%) | ++ (5%≤ ++ <25%) | + (LOQ≤ + <5%) | + (LOQ≤ + <5%) | + (LOQ≤ + <5%) | ++ (5%≤ ++ <25%) | ++ (5%≤ ++ <25%) | +++ (25%≤ +++ <50%) |
| CCNC[C@H]1OCCc2cccc(F)c21 [Example 86, (S)-N-((8-fluoroisochroman-1-yl)methyl)ethanamine] | 10 to 30 mg/kg | ++ (5%≤ ++ <25%) | + (LOQ≤ + <5%) | ++ (5%≤ ++ <25%) | ++ (5%≤ ++ <25%) | ++ (5%≤ ++ <25%) | + (LOQ≤ + <5%) | ++ (5%≤ ++ <25%) | +++ (25%≤ +++ <50%) | + (LOQ≤ + <5%) |
| CNC[C@H]1OC[C@@H](O)c2cccc(F)c21 [Example 98, (1S,4S)-8-fluoro-1-((methylamino)methyl)isochroman-4-ol] | > 30 mg/kg | + (LOQ≤ + <5%) | + (LOQ≤ + <5%) | + (LOQ≤ + <5%) | + (LOQ≤ + <5%) | + (LOQ≤ + <5%) | + (LOQ≤ + <5%) | + (LOQ≤ + <5%) | + (LOQ≤ + <5%) | + (LOQ≤ + <5%) |
| CNC[C@@H]1OCc2cccc(F)c21 [Example 69, (R)-1-(7-fluoro-1,3-dihydroisobenzofuran-1-yl)-N-methylmethanamine] | < 3 mg/kg | ++ (5%≤ ++ <25%) | +++ (25%≤ +++ <50%) | ++ (5%≤ ++ <25%) | + (LOQ≤ + <5%) | ++ (5%≤ ++ <25%) | ++ (5%≤ ++ <25%) | ++ (5%≤ ++ <25%) | + (LOQ≤ + <5%) | ++++ (50%≤ ++++) |
| NC[C@H]1OCCc2ccc3c(c21)OCO3 [Example 7, (S)-(6,9-dihydro-7H-[1,3]dioxolo[4,5-h]isochromen-9-yl)methanamine] | < 3 mg/kg | ++ (5%≤ ++ <25%) | +++ (25%≤ +++ <50%) | +++ (25%≤ +++ <50%) | ++ (5%≤ ++ <25%) | ++ (5%≤ ++ <25%) | ++ (5%≤ ++ <25%) | ++ (5%≤ ++ <25%) | + (LOQ≤ + <5%) | ++ (5%≤ ++ <25%) |
| CNC[C@@H]1OCc2c(Cl)cccc21 [Example 93, (R)-1-(4-chloro-1,3-dihydroisobenzofuran-1-yl)-N-methyl-methanamine] | < 3 mg/kg | +++ (25%≤ +++ <50%) | ++ (5%≤ ++ <25%) | +++ (25%≤ +++ <50%) | ++ (5%≤ ++ <25%) | ++ (5%≤ ++ <25%) | + (LOQ≤ + <5%) | + (LOQ≤ + <5%) | ++ (5%≤ ++ <25%) | ++++ (50%≤ ++++) |
| CNC[C@@H]1OCCc2c(C)cccc21 [Example 39, (R)-N-methyl-1-(5-methylisochroman-1-yl)methanamine] | < 3 mg/kg | + (LOQ≤ + <5%) | ++ (5%≤ ++ <25%) | ++ (5%≤ ++ <25%) | ++ (5%≤ ++ <25%) | ++++ (50%≤ ++++) | + (LOQ≤ + <5%) | ++ (5%≤ ++ <25%) | + (LOQ≤ + <5%) | +++ (25%≤ +++ <50%) |
| CNC[C@H]1OCCc2ccc3c(c21)OCCO3 [Example 9, (S)-N-methyl-1-(2,3,7,10-tetrahydro-8H-[1,4]dioxino[2,3-h]isochromen-10-yl)methanamine] | 3 to 10 mg/kg | + (LOQ≤ + <5%) | ++ (5%≤ ++ <25%) | ++ (5%≤ ++ <25%) | + (LOQ≤ + <5%) | +++ (25%≤ +++ <50%) | ++ (5%≤ ++ <25%) | ++ (5%≤ ++ <25%) | ++ (5%≤ ++ <25%) | +++ (25%≤ +++ <50%) |
| CNC[C@H]1OCCc2c(O)cc3c(c21)OCO3 (single isomer, unassigned) [Example 104] | < 3 mg/kg | + (LOQ≤ + <5%) | + (LOQ≤ + <5%) | +++ (25%≤ +++ <50%) | ++ (5%≤ ++ <25%) | ++++ (50%≤ ++++) | + (LOQ≤ + <5%) | + (LOQ≤ + <5%) | ++ (5%≤ ++ <25%) | ++ (5%≤ ++ <25%) |
| CNC[C@@H]1OCCc2cccc(C#N)c21 [Example 45, (R)-1-((methylamino)methyl)isochromane-8-carbonitrile] | 3 to 10 mg/kg | + (LOQ≤ + <5%) | ++ (5%≤ ++ <25%) | ++ (5%≤ ++ <25%) | ++ (5%≤ ++ <25%) | + (LOQ≤ + <5%) | + (LOQ≤ + <5%) | ++ (5%≤ ++ <25%) | + (LOQ≤ + <5%) | ++++ (50%≤ ++++) |
| CNC[C@H]1OCCc2c1ccc1c2OCO1 [Example 3, (S)-1-(8,9-dihydro-6H-[1,3]dioxolo[4,5-f]isochromen-6-yl)-N-methylmethanamine] | 10 to 30 mg/kg | ++ (5%≤ ++ <25%) | ++ (5%≤ ++ <25%) | ++ (5%≤ ++ <25%) | + (LOQ≤ + <5%) | +++ (25%≤ +++ <50%) | + (LOQ≤ + <5%) | + (LOQ≤ + <5%) | + (LOQ≤ + <5%) | + (LOQ≤ + <5%) |
| CNC[C@H]1OCCc2ccc3c(c21)OC(F)(F)O3 [Example 102, (S)-1-(2,2-difluoro-6,9-dihydro-7H-[1,3]dioxolo[4,5-h]isochromen-9-yl)-N-methylmethanamine] | 10 to 30 mg/kg | + (LOQ≤ + <5%) | ++ (5%≤ ++ <25%) | ++ (5%≤ ++ <25%) | + (LOQ≤ + <5%) | ++ (5%≤ ++ <25%) | + (LOQ≤ + <5%) | + (LOQ≤ + <5%) | + (LOQ≤ + <5%) | +++ (25%≤ +++ <50%) |
| Cc1cccc2c1[C@H](CN)OCC2 [Example 75, (R)-(8-methylisochroman-1-yl)methanamine] | 3 to 10 mg/kg | + (LOQ≤ + <5%) | ++ (5%≤ ++ <25%) | ++ (5%≤ ++ <25%) | ++ (5%≤ ++ <25%) | ++ (5%≤ ++ <25%) | + (LOQ≤ + <5%) | ++ (5%≤ ++ <25%) | + (LOQ≤ + <5%) | ++++ (50%≤ ++++) |
| CNC[C@@H]1OCCCc2cccc(F)c21 [Example 61, (R)-1-(9-fluoro-1,3,4,5-tetrahydrobenzo[c]oxepin-1-yl)-N-methylmethanamine] | 3 to 10 mg/kg | + (LOQ≤ + <5%) | + (LOQ≤ + <5%) | ++ (5%≤ ++ <25%) | + (LOQ≤ + <5%) | + (LOQ≤ + <5%) | + (LOQ≤ + <5%) | ++++ (50%≤ ++++) | + (LOQ≤ + <5%) | +++ (25%≤ +++ <50%) |
